Measured values published in PMC13334477 (RSC Medicinal Chemistry, 2026).
Several values for one entry are separate records, joined by “and”; a condition that tells them apart may be missing. Identical values can stand only once. Like-named read-outs stand apart in the source and are kept apart here.

Tests used:
DK100 DNA duplex = assay: Native ESI-MS, DK100; assay type: binding; conditions: 10 μM DNA, 20 μM ligand, 100 mM ammonium acetate
Experimental: (§1) Oligonucleotides were purchased lyophilized and RP-cartridge purified from Eurogentec (Kanaka Eurogentec, Seraing, Belgium), then buffer exchanged with ammonium acetate (5 M; Sigma-Aldrich, Saint-Quentin-Fallavier, France) using Amicon Ultra (3 K cut-off; Merck Millipore, Cork, Ireland). The concentrations of the initial stock solutions of DNA/RNA (∼1 mM) were measured by UV absorbance at 260 nm. Sample solutions were prepared by diluting the appropriate volume of oligonucleotide stock solutions to reach 10 μM of DNA/RNA and 20 μM of ligand, in 100 mM ammonium acetate. The solutions were incubated for 16 h at 4 °C before analysis by mass spectrometry. […] These parameters ensured a good signal intensity without disrupting noncovalent complexes, which was verified using d[G4T4G4]2 as a control. The presented spectra of all DNA/RNA used in this work (Fig. 5, S9 and S10) result from 8 min accumulations. The abundance of each species, M, M + 1L, M + 2L and M + 3L complexes, where M is a monomer oligonucleotide and L is a ligand, was determined from their peak area signals (A), from the sum of the −4, −5 and −6 charge states for DNA and from the sum of the −5, −6 and −7 charge states for RNA, assuming that their response factors are equal. The molar concentrations were then calculated knowing the total amount of oligonucleotide [M]tot: [drawing 1] [drawing 2] [drawing 3] [drawing 4] The concentration of the free ligand, [L]free, was determined from its total concentration [L]tot:[L]free = [L]tot − [M + 1L] − 2[M + 2L] − 3[M + 3L]Apparent consecutive dissociation constants (Kd1, Kd2 and Kd3) were calculated by using the following equations: [drawing 5] [drawing 6] [drawing 7]
(§2) We further analysed the formation of the DBA/G4 complexes by native electrospray ionization mass spectrometry (ESI-MS). We initially attempted to analyze DBA binding to the primary G4 targets from HIV-1 (HIVpro1, HIVpro2, LTR4 and rLTR4 RNA). […] These sequences span the major G4 topological classes and provide a representative assessment of DBA binding across diverse G4 architectures. We also included two DNA duplex controls (DK100 and DK66) to evaluate binding selectivity. This ESI-MS approach enables direct determination of binding stoichiometry, quantification of each species in solution, and calculation of dissociation constants (Kd) from the relative abundances of free and bound forms.[88,97]
(§3) In the ESI-MS conditions, the rLTR4 G4 (10 μM) forms a dimeric structure. […] Among the six DNA and RNA tested here (Fig. 5B, S9 and S10) only rLTR4 presented 1 : 3 G4/DBA complexes. In all cases but one, the 1 : 1 stoichiometry represents the major species in solution while for rLTR4 it is the 1 : 2 (green). […] For TG4T tetramolecular G4 or G4T4G4 bimolecular G4 only 1 : 1 and 1 : 2 complexes were detected (Fig. S9A and S10A). […] The weakest binding was obtained for the G4T4G4 antiparallel G4 and Htel sequence with Kd1s ranging from 11 μM for to 500 μM (Table 2).

HIV-1 [1] = assay: microbe, parasite or virus in culture; conditions: Human immunodeficiency virus 1, HeLaP4, read-out: IC50 (infectivity inhibition), native HIV-1, MOI 1, compound added 30 min before infection, 24 h, β-gal reporter
[2] = tested on: HIVpro2-FT (hybrid DNA G4); assay: FRET melting assay, HIVpro2-FT; assay type: binding, HIV-1; conditions: ligand 1 μM, DNA 0.2 μM
Experimental: (§4) Doubly labelled oligonucleotides with fluorescein and TAMRA were purchased lyophilized and RP-cartridge purified from Eurogentec (Kanaka Eurogentec, Seraing, Belgium). FRET melting experiments were run on Stratagene Mx3005P real-time PCR equipment in 96-well plates on the DNA sequences listed Table 1. Experiments were performed in 10 mM lithium cacodylate buffer (pH 7.2) and 10 mM KCl and 90 mM LiCl as previously described.[45,46] The DNA concentration was 0.2 μM. The stabilization (ΔT1/2) induced by compounds was calculated as the difference between the Tm of the nucleic acid alone and that measured with a ligand concentration of 1 μM. Data are presented as averages of three independent measurements, each conducted in duplicate (λexc = 492 nm, λem = 516 nm, T interval = 25–95 °C, ramp: 25 °C for 5 min, then 1 °C min^−1, measurements every 1 °C, 8× magnification of the fluorescence signal). The G4 selectivity of the ligands with respect to the duplex was evaluated by determining the Tm values in the presence of 0, 3 or 10 μM of the duplex competitor ds26.
(§5) In this assay, we performed thermal denaturation experiments by heating and recording the fluorescence of DNA oligonucleotides doubly labelled with fluorescein and TAMRA fluorophores (Fig. 3 and S7). Ligand binding to the G4 stabilises the structure, resulting in an increase in the half-dissociation temperature of the structure (ΔT1/2). As a first approximation, the higher the ΔT1/2 (ΔT1/2 higher), the higher the affinity of the ligand for the target.[45]
(§6) The fluorescently labeled oligonucleotides were dissolved at a concentration of 0.2 μM in 10 mM lithium cacodylate buffer (pH 7.2) with 10 mM KCl and 90 mM LiCl. […] E) Radar plot representation that summarizes the FRET-melting results (ΔT1/2 (°C)) for each ligand in the presence of HIVpro1-FT (green), HIVpro2-FT (grey), LTR4-FT (bleu), and Htel-FT (red). Data are the results of at least three independent experiments in which each data point was performed in duplicate.

TG4T DNA G4 (parallel) = assay: Native ESI-MS, TG4T; assay type: binding; conditions: 10 μM DNA, 20 μM ligand, 100 mM ammonium acetate
Experimental: as §1, §2, §3

[3] = tested on: Htel-FT (human telomeric DNA G4); assay: FRET melting assay, Htel-FT; assay type: binding; conditions: ligand 1 μM, DNA 0.2 μM
Experimental: as §4, §5, §6

[4] = Cell viability assay (CellTiter 96 AQueous One); assay type: cell-based; conditions: human, at 1.56 μM
HIV-1 [5] = conditions: at 1.56 μM
[6] = tested on: Htel (DNA, G4) AGGGTTAGGGTTAGGGTTAGGG; assay: native ESI-MS; conditions: 100 mM ammonium acetate (NH4+), no K+; apparent, site 1 of 2; 10 μM DNA, 20 μM ligand, 4 °C incubation
[7] = tested on: G4T4G4 (DNA, G4) GGGGTTTTGGGG; assay: native ESI-MS; conditions: 100 mM ammonium acetate (NH4+), no K+; apparent, site 1 of 2; 10 μM DNA, 20 μM ligand, 4 °C incubation

## COc1ccc2c(ccc3c2cc2c4ccc(OC)cc4ccc2[n+]3-c2ccccc2)c1 [DBA1]
DK100 DNA duplex; read-out: Kd1 DK100
  Kd: 1030 µM
HIV-1 [1]
  IC50: 900 nM
[2]; +10µM ds26
  ΔT1/2 HIVpro2: 3.3±0.4 °C
[2]; No ds26
  ΔT1/2 HIVpro2: 4.2±1.4 °C
TG4T DNA G4 (parallel); read-out: Kd1 TG4T
  Kd: 14.7 µM
TG4T DNA G4 (parallel); read-out: Kd2 TG4T
  Kd: 46 µM
[3]; +10µM ds26
  ΔT1/2 Htel: 13±0.5 °C
[3]; No ds26
  ΔT1/2 Htel: 17±0.2 °C

## COc1ccc2c(ccc3c2cc2c4ccc(OC)cc4ccc2[n+]3-c2ccc([N+](=O)[O-])cc2)c1 [DBA4]
DK100 DNA duplex; read-out: Kd2 DK100
  Kd: 142 µM
HIV-1 [1]
  IC50: 1000 nM
[2]; +10µM ds26
  ΔT1/2 HIVpro2: 3.0±0.8 °C
[2]; No ds26
  ΔT1/2 HIVpro2: 3.8±0.3 °C and 3.8 °C
[4]
  viability at 24 h, 1.56 µM: 100%
TG4T DNA G4 (parallel); read-out: Kd1 TG4T
  Kd: 5.42 µM
TG4T DNA G4 (parallel); read-out: Kd2 TG4T
  Kd: 22.7 µM
[3]; +10µM ds26
  ΔT1/2 Htel: 14±0.3 °C
HIV-1 [5]
  reduction of viral infectivity: approximately 20%
[6]
  Kd1: 11.21 µM

## COc1ccc(-[n+]2c3ccc4cc(OC)ccc4c3cc3c4ccc(OC)cc4ccc32)cc1 [DBA3]
DK100 DNA duplex; read-out: Kd1 DK100
  Kd: 156 µM
DK100 DNA duplex; read-out: Kd2 DK100
  Kd: 618 µM
HIV-1 [1]
  IC50: 4300 nM
[7]
  Kd1: 36.88 µM
[2]; +10µM ds26
  ΔT1/2 HIVpro2: 3.8±0.6 °C
[2]; No ds26
  ΔT1/2 HIVpro2: 3.5±0.2 °C and 3.5 °C
TG4T DNA G4 (parallel); read-out: Kd1 TG4T
  Kd: 13.6 µM
TG4T DNA G4 (parallel); read-out: Kd2 TG4T
  Kd: 52.2 µM
[3]; +10µM ds26
  ΔT1/2 Htel: 14±0.1 °C

## c1ccc(-[n+]2c3ccc4ccccc4c3cc3c4ccccc4ccc32)cc1 [DBA5]
DK100 DNA duplex; read-out: Kd1 DK100
  Kd: 40 µM
DK100 DNA duplex; read-out: Kd2 DK100
  Kd: 67.7 µM
[2]; +10µM ds26
  ΔT1/2 HIVpro2: 1.7±0.9 °C
[2]; No ds26
  ΔT1/2 HIVpro2: 1.9±0.1 °C
[4]
  viability at 24 h, 1.56 µM: 100%
TG4T DNA G4 (parallel); read-out: Kd1 TG4T
  Kd: 21.6 µM
TG4T DNA G4 (parallel); read-out: Kd2 TG4T
  Kd: 89.4 µM
[3]; +10µM ds26
  ΔT1/2 Htel: 9.0±0.1 °C
[3]; No ds26
  ΔT1/2 Htel: 12.2±0.1 °C
HIV-1 [5]
  reduction of viral infectivity: ~40%
[6]
  Kd1: 14.47 µM

## COC(=O)c1ccc(-[n+]2c3ccc4cc(OC)ccc4c3cc3c4ccc(OC)cc4ccc32)cc1 [DBA2]
DK100 DNA duplex; read-out: Kd1 DK100
  Kd: 833 µM
HIV-1 [1]
  IC50: 3100 nM
[2]; +10µM ds26
  ΔT1/2 HIVpro2: 2.0±0.4 °C
[2]; No ds26
  ΔT1/2 HIVpro2: 2.1±0.2 °C and 2.1 °C
TG4T DNA G4 (parallel); read-out: Kd1 TG4T
  Kd: 6.09 µM
TG4T DNA G4 (parallel); read-out: Kd2 TG4T
  Kd: 25.9 µM
[3]; +10µM ds26
  ΔT1/2 Htel: 12±0.6 °C
